Drawing on ChEMBL document CHEMBL3507680, “University of Dundee, Gates Library screen for HepG2 cell viability”, this text covers cytotoxicity for 99 compounds.

This data set in a line: Human HepG2 cell viability assay in 384 well format. Type of data set: toxicity, cell-based. Further details: dose 125 nL, time 70.5 hour; concentration not given beside the values. The note with it: HepG2 cells, read-out: Inhibition.
On to `CN(C)C(=O)N1CC2(CCOCC2)c2cc(NS(=O)(=O)C3CC3)ccc21`, for which the cytotoxicity at 70.5 h was 11.5%. For `Cc1nc(C)n(CC2CCCN2Cc2nc3ccccc3c(=O)[nH]2)n1` (centres undefined) the value was -1.61%; for `CCC(C)NC(=O)CS(=O)(=O)Cc1ccccc1Cl` (centres undefined), -7.35%. As to `COc1c(CNC2CCOc3ccccc32)c(C)nn1C` (centres undefined), the cytotoxicity at 70.5 h was -4.19%. For the compound `Cc1cc(C[C@@H]2COC[C@@H]2NC(=O)CN2CCCCCC2)on1`, the cytotoxicity at 70.5 h is -10.1%. The same measure for `O=C(c1cccs1)N1CCC(Cn2nc(-c3ccco3)ccc2=O)CC1`: 8.96%; for `Cc1ccc(CN(CCCn2ccnc2)Cc2[nH]cnc2C)s1`: 2.51%; for `NCCO[C@H]1C[C@@H](O)C12CCN(C(=O)CCOc1ccccc1)CC2`: -0.434%.

With `Cc1ccc(-c2noc(CN3CCCC(Cn4cncn4)C3)n2)cc1` (centres undefined), the cytotoxicity at 70.5 h is -1.78%. For the compound `CCC(CNc1ncnc2oc(C)nc12)Cc1ccccc1` (centres undefined), the cytotoxicity at 70.5 h was -1.88%.

In the case of `NCC1Cc2cc(Oc3cc(F)c(CN4CCCC4)c(F)c3)ccc2O1` (centres undefined), the cytotoxicity at 70.5 h is -11.4%.

For the compound `COc1cccc(CN(C)Cc2[nH]c3ccccc3c2C)c1O`, the cytotoxicity at 70.5 h was found to be 1.38%. For `CCOCCCNC(=O)C(C)n1cc(Br)cn1` (centres undefined) the value was 1.42%; for `CC(C)CC(=O)N(C)Cc1nc(C(F)(F)F)cs1`, -9.65%; for `CCS(=O)(=O)NCCNc1cc(-n2cccc2)ncn1`, -0.787%. On to `Cc1cccc2cc(CO)c(N3Cc4cnc(C(C)(C)C)nc4C3)nc12`, for which the cytotoxicity at 70.5 h stood at 7.83%. On to `CN1CCN(C(=O)c2cc3sccc3n2Cc2ccccc2Cl)CC1`, for which the cytotoxicity at 70.5 h is -6.69%. `CCc1nnc(CNC2CCc3nc(C(C)C)nn3C2)o1` (centres undefined): the cytotoxicity at 70.5 h worked out at 0.155%. In the case of `CC1CCCCN1C(=O)c1ccc(Br)s1` (centres undefined), the cytotoxicity at 70.5 h was -5.12%. For `CN(C)C(=O)c1cn[nH]c1C1CCCN1Cc1cncn1C` (centres undefined), the cytotoxicity at 70.5 h is -0.0963%. For `O=C(c1cn(CC(=O)N2CCCCC2)c2ccccc12)C1CC1` the value was 24%; for `CN(C)CC(=O)N1CCC2(CC1)COCCN(Cc1ccncc1)C2`, -8.72%; for `Cc1c(Cl)cccc1S(=O)(=O)NCC(O)c1cccn1C` (centres undefined), -3.24%. For `CCN(CC1CCOC1)C(=O)Cn1nnn(-c2cccs2)c1=O` (centres undefined), the cytotoxicity at 70.5 h was -15.9%.

For the compound `COc1ccc(C(O)CN2CC(n3cc(C)cn3)C2)cc1` (centres undefined), the cytotoxicity at 70.5 h was -8.25%. The same measure for `c1coc(CN2CC[C@H]3O[C@@H](COCC4CC4)CC[C@H]32)c1`: 7.95%; for `COCC(C)(O)CNC(=O)Nc1cccc(OC)c1OC` (centres undefined): -11%. For the compound `Cc1nn(CCC(=O)NC(C(=O)O)c2c(C)n[nH]c2C)c(C)c1C` (centres undefined), the cytotoxicity at 70.5 h was -3.08%. As for `Cc1nn(C)c(N(C)C)c1CNCc1ccccc1Cn1ccnc1`, the cytotoxicity at 70.5 h is -1.82%. The same measure for `O=c1cc(CN(CCO)C2CC2)nc2ccccn12`: -3.82%; for `COCCN(C)c1ccc(NCc2ccsc2)nc1`: -10.2%; for `O=C(CNC(=O)c1ccccc1F)NCc1ccccn1`: -7.71%. The same measure for `Cn1c(NCC(O)c2ccc(F)c(F)c2)c(C#N)c(=O)n(C)c1=O` (centres undefined): 1.75%. For the compound `O=C(NCC1CC1)[C@@H]1CCO[C@@H]2CCN(CCc3ccccc3)C[C@H]21`, the cytotoxicity at 70.5 h was -5.09%. The same measure for `Cc1nc(CNC(C)c2ccc(OCC(=O)NC3CC3)cc2)cs1` (centres undefined): 3.83%; for `O=C(NCCN1CCCCCC1=O)Nc1cccnc1-n1cccn1`: 23.5%. For `COC(C)(C)CC(C)NCc1nncn1C1CCCCC1` (centres undefined) the value was -7.83%; for `COc1ccccc1CNC(=O)N1CCCC(CO)C1` (centres undefined), 11.7%. For the compound `Cc1cc(CNC(=O)c2cccs2)ccc1S(C)(=O)=O`, the cytotoxicity at 70.5 h is -3.96%. The same measure for `Cc1cnc(CNC(=O)[C@@]23CCO[C@@H]2CCNC3)cn1`: 0.0687%; for `CN(Cc1ccccc1)CC(C)(C)NC(=O)c1ccc(C(N)=O)cn1`: 1.67%; for `CCN1CCc2c(sc3c2C(=O)NC(/C=C/c2ccco2)N3)C1` (centres undefined): 43.7%. Turning to `O=C(c1ccncc1)N1CCn2c(nnc2-c2ccccc2)C1`, the cytotoxicity at 70.5 h is -6.68%. As to `OC1CCN(c2cncc(CCC3CCCN3)n2)CC1` (centres undefined), the cytotoxicity at 70.5 h is -4.54%. The same measure for `CN(Cc1nnnn1C1CC1)c1cccc2ccccc12`: 0.192%; for `COCCN1CCC(CN(CC2CCCO2)C(=O)Cn2cccn2)CC1` (centres undefined): -4.66%; for `COc1ccc(-n2cc(CCO)cn2)cc1C(N)=O`: -14.7%. For `O=C1COC2(CCN(C(=O)c3ccoc3)CC2)CN1Cc1ccccn1` the value was -0.827%; for `c1cc(CNCC2OCCc3cn(CC4CCOCC4)nc32)ccn1` (centres undefined), 9.22%; for `Fc1cccc(N2CCCC3(C2)CN(c2ncccn2)CCO3)c1` (centres undefined), -0.813%. The same measure for `CC(C)c1nn(C)c(Cl)c1CNCC(=O)N1CCN(C)CC1`: -4.93%; for `COc1ccccc1NC(=O)Cn1c(=O)nc(N)c2cc(C)sc21`: -16.1%. For the compound `COc1ccc(C)cc1CN(C)CCCNS(C)(=O)=O`, the cytotoxicity at 70.5 h is 7.17%. Turning to `COCCn1nc(C(=O)N(C)Cc2ccc3ccccc3c2)ccc1=O`, the cytotoxicity at 70.5 h is -0.954%. For `O=C(O)c1ccccc1CN1CCC(c2ccnc3ccnn23)CC1`, the cytotoxicity at 70.5 h was -4.52%. Consider `CCN(Cc1ccccc1)C(=O)CCN1C[C@@H](C(=O)O)[C@H](C2CC2)C1`, for which the cytotoxicity at 70.5 h was -8.23%. As for `Cc1cc(C2CN(CC(=O)NCc3ccco3)CCO2)ccc1F` (centres undefined), the cytotoxicity at 70.5 h was -11.9%. As to `OC[C@H]1CN(C2Cc3ccccc3C2)C[C@H]1CN1CCC(O)CC1`, the cytotoxicity at 70.5 h was -7.74%. The same measure for `Cc1ccc(C(=O)CN2C(=O)c3ccccc3CS2(=O)=O)c(C)c1`: -10.2%; for `O=C(CCCc1cccs1)N1CCC(N2CCNC2=O)CC1`: 22.1%. `CC(NCCn1cccn1)c1ccccc1Cl` (centres undefined): the cytotoxicity at 70.5 h was 10.3%. The same measure for `Cc1cnn(CC2CN(Cc3nc4ccccc4s3)CCO2)c1` (centres undefined): -4.94%.

On to `CCCc1cc(NC2CCc3nc(C)nn3C2)n2ncnc2n1` (centres undefined), for which the cytotoxicity at 70.5 h was -112%. Consider `OC1(CNC2CCN(c3ccccn3)CC2)CCc2ccccc21` (centres undefined), for which the cytotoxicity at 70.5 h was -6.83%.

With `CNC(=O)c1ccc(C2CN(C(=O)c3scnc3C)CCO2)nc1` (centres undefined), the cytotoxicity at 70.5 h was -3.13%. The same measure for `N[C@H]1CN(S(=O)(=O)N2CCCCCC2)C[C@@H]1c1ccccc1`: 20%; for `Cc1cc(C[C@@H]2COC[C@H]2NCc2ccc(Cl)c(Cl)c2)on1`: 19.8%. The same measure for `COc1cc(C(=O)NCCc2ccc(Cl)cc2)on1`: 0.265%.

As for `Cc1noc([C@@H]2C[C@H]3CN(CC4CCOCC4)C[C@H]3O2)n1`, the cytotoxicity at 70.5 h amounted to 14.1%. For `C[C@@H]1CN(CCc2ccccc2)C[C@]12CCN(CC(=O)N(C)C)C2=O` the value was -12.6%. For `Cc1nnc(N2C[C@@H](Oc3ccccn3)[C@H]3OCCC[C@H]32)s1` the value was -4.15%; for `CC(C)c1nccc(CN2CCCC(O)(CN(C)C)C2)n1` (centres undefined), 15%; for `Cc1cccc(C2CCCN2C(=O)CN(C)S(C)(=O)=O)c1C` (centres undefined), -5.26%.

In the case of `Cc1cccc(CN2CCC(c3nnc(-c4scnc4C)o3)CC2)c1`, the cytotoxicity at 70.5 h is 0.33%. The same measure for `CCN(CC)C(=O)COc1nc(C(C)C)no1`: 18.3%; for `Cc1cc(C(=O)N2CC[C@H](N3CCN(C)CC3)[C@H](CCCO)C2)n(C)n1`: -6.07%; for `CC(NC(=O)C(C)(C)C)c1cc(O)nc(-c2cccnc2)n1` (centres undefined): -5.99%. In the case of `CN(C)c1cccc(C(=O)Nc2cnn(CC(N)=O)c2)c1`, the cytotoxicity at 70.5 h was -16.4%.

For the compound `COc1ccc(C2CN(c3cc(C)ncn3)CCN2C(C)=O)cc1` (centres undefined), the cytotoxicity at 70.5 h was -5.95%. Take `CO[C@@H]1CC[C@H]2[C@H]1OCCN2C(=O)C1=CCCC1`: the cytotoxicity at 70.5 h is -20.1%. In the case of `COCCN1CCC(NC(=O)Cn2cc(C)c3ccccc32)CC1`, the cytotoxicity at 70.5 h stood at 12.3%. The same measure for `CSc1nc2ccsc2c(=O)n1CC(=O)NC1CCCC1`: -6.44%. Turning to `CC(C)N(CCNC(=O)N1CCCC(N(C)C)C1)C1CC1` (centres undefined), the cytotoxicity at 70.5 h came out at 13.5%. For the compound `Cc1nn2cnnc2c(C)c1CCC(=O)Nc1nc2c(s1)CCC2`, the cytotoxicity at 70.5 h is -13%. For `Cc1ccc(S(=O)(=O)n2ccc(C(=O)NCC(F)(F)F)c2)cc1` the value was 1.3%; for `Fc1ccccc1Sc1ccccc1CNC1=NCCN1`, -0.773%. For `Cc1ccc(C)c(CC(=O)NC2CCCS(=O)(=O)C2)c1` (centres undefined) the value was 6.95%. For `COCC(=O)N1CCCn2c(CN3CCOCC3)nnc2C1` the value was 2.56%; for `Cc1csc(N2CCCN(C(=O)c3c(C)noc3C)CC2)n1`, -8.3%. For `CCC[C@@H]1CN(c2cncc(C(=O)N3CCOCC3)n2)C[C@H]1N(C)C`, the cytotoxicity at 70.5 h was determined as 32.6%.

Turning to `O=c1[nH]c(-c2ccccn2)nc2c1CCN(Cc1cccc(O)c1)C2`, the cytotoxicity at 70.5 h was -4.95%. Turning to `CCCNC(=O)C1CCN(Cc2csc(C(C)(C)C)n2)CC1`, the cytotoxicity at 70.5 h was -9.45%.

`Cc1nc(NCCc2ccccc2)cc(C(=O)N2CCCCC2)n1`: the cytotoxicity at 70.5 h was -0.559%. Turning to `COC(=O)CNC(=O)CSCc1nc(O)c2cc(C(C)C)sc2n1`, the cytotoxicity at 70.5 h was -14.3%. Regarding `O=C(c1ccnnc1)N1C[C@H](OCc2ccccn2)[C@H]2COC[C@H]21`, the cytotoxicity at 70.5 h is 4.62%. For `Cc1nccn1C1CCCN(C(=O)c2ccc(N3CCCC3)nn2)C1` (centres undefined) the value was -4.33%; for `Cc1nccn1C1CCCN(C(=O)COCC(F)(F)F)C1` (centres undefined), -7.9%. As for `COc1cccc(-n2cc(-c3ccnc(NC(CO)C(C)C)n3)cn2)c1` (centres undefined), the cytotoxicity at 70.5 h was determined as 13.2%. For `CN(Cc1ccsc1)C(=O)Nc1ccc(S(C)(=O)=O)cc1` the value was -1.57%.
